Five molecules from patent publication US10087233B2, “Coagulation factor VIII with reduced immunogenicity” (IMNATE SARL, priority 2012, dated 2018) can be followed below.

One assay deals with T1, CD1d tetramers (Mus musculus, UniProt P11609).
T1 construct: purchased ProImmune
T1 sequence (P11609 22-305 limits assumed): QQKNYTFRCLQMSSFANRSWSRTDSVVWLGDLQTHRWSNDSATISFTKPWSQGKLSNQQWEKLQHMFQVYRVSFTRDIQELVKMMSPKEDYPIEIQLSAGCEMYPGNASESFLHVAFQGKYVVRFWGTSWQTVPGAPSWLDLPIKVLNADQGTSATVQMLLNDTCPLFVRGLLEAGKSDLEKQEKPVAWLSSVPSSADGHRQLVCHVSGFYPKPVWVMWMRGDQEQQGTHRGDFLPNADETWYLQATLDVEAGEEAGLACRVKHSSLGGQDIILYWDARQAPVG
T1 sequence (P01887 21-119 partner): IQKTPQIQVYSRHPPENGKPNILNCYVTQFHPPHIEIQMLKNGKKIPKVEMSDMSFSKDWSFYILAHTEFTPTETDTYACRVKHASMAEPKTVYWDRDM
Put plainly: CD1d tetramers loaded with peptide, detection of NKT cells among CD4+ spleen cells. Format: binding. To be noted: CD4+ spleen cells of naïve mice; FIG. 1. On the procedure: A peptide encompassing SEQ ID NO: 1 was obtained by chemical synthesis. This peptide was used to load CD1d tetramers (ProImmune) by overnight incubation.
NKT cells were prepared from the spleen of naïve mice by depletion of all CD4(−) cells using magnetic beads.
CD4+ cells were then incubated with CD1d tetramers loaded by peptide of SEQ ID NO: 1 (P28 WT in FIG. 1), which corresponds to aminoacid sequence 190 to 209.

The test system of assay [1] is NKT cells. In words: Immunization with JAWS2 cells loaded with peptide, tetramer detection of NKT cells in spleen. Format: in vivo, factor VIII KO mice. To be noted: tetramers loaded with peptide, FIG. 2. The method, then: JAWS2 cells express CD1d but not MHC class II determinants.
JAWS2 cells were incubated 2 h at 37° C. with peptide of SEQ ID NO: 1 (10 μg/ml) and thoroughly washed twice. Cells were then treated with mitomycin to block cell division and washed 4 times to eliminate mitomycin. A cell suspension containing 2×10^6 cells in physiological serum was injected by the intraperitoneal route in each of a series of 3 naïve factor VIII KO mice. As a control, 3 naïve factor VIII KO mice received the same number of JAWS2 cells which had not been incubated with peptide of SEQ ID NO: 1.
Five days after IP injection, the mice were sacrificed and their spleen prepared as above using magnetic beads to eliminate all CD4(−) cells.
CD4+ cells were then incubated with tetramers loaded with peptide of SEQ ID NO: 1.

The test system of the next assay is human iNKT cells. Put plainly: Cell cluster formation of human iNKT cells with peptide-loaded U937 cells. To be noted: iNKT cells with loaded U937 cells 1:1, 2 weeks, IL-2; FIG. 5. In kind it is cell-based. On the procedure:
In order to establish whether human PBMC contained cells reacting with a CD1d-binding peptide epitope, invariant NKT (iNKT) cells were prepared from a buffy coat using magnetic beads coated with an antibody specific to the Valpha24-Jalpha18 chain of the T cell receptor (so-called invariant chain).
Said human iNKT cells (10^5/condition) were then incubated with mitomycine-C treated U937 cells (Ratio 1:1) loaded with 5 μg of either peptide encompassing aminoacid residues 188-204 of human factor VIII (SEQ ID NO: 5) or with control peptide (MHCII-MOG). Incubation was carried out for 2 weeks at 37° C. in RPMI containing 10% of fetal calf serum and 50 U/ml of human recombinant IL-2.
Culture plates were examined by eye for the presence of cell clusters. […] FIG. 5 illustrates the average of three microscopic field count of this observation (minimum 10 cells/cluster).

Assay [2] has as its system NKT cells. Put plainly: Immunization with loaded JAWS2 cells, CD4+/CD8+ lineage of DX5/CD160 cells binding CD1d tetramers. In kind it is in vivo, factor VIII KO mice. On the procedure: To determine the cell lineage to which NKT cells belonged, an experiment was performed as described in Example 2. Thus, JAWS2 cells were loaded with either peptide of SEQ ID NO: 3, B-domain-deleted factor VIII, alpha-gal-ceramide or kept unloaded before intraperitoneal (IP) injection in factor VIII KO mice (2×10^6 cells per mouse). Five days after intraperitoneal injections, the mice were sacrificed and the splenocytes prepared. Cell suspensions were then reacted with CD1d tetramers unloaded or loaded with peptide of SEQ ID NO: 3 or with alpha-gal-ceramide.
For faccs analysis, cells binding CD1d tetramers were labeled with DX5- and CD160-specific antibodies and either anti-CD4 or anti-CD8 antibodies. The table summarizes the results.

In another assay the test system is U937 cells. In words: CD1d surface expression on U937 cells incubated with peptide (FACS). Format: cell-based, human. To be noted: as example 4; FIG. 6. On the procedure: To determine whether human antigen-presenting cells had the capacity to process and present a peptide epitope in the context of the CD1d molecule, the human macrophage cell line U937 was used.
The percentage of resting U937 cells expressing CD1d is low as detected with a specific anti-CD1d antibody. It was reasoned that, if U937 cells were incubated with a peptide having the sequence motif enabling it to bind to CD1d, then this should be detectable by increased expression of CD1d at cell surface. As observed for peptides encompassing MHC class II epitopes, the binding of a peptide stabilizes the conformation of the molecule (class II, or CD1d in the present case), allowing the complex to be anchored at cell surface and reducing its intracellular recycling.
U937 cells (7×10^5 cells) were incubated for 24h at 37° C. with 5 μg of peptide encompassing CD1d binding motifs or controls. The cells were then washed and incubated with fluorescence-labeled antibodies specific to CD1d and the number of positive cells evaluated using a FACS system.
Controls include (from left to right) unloaded U937, cells incubated with alpha-gal-ceramide and a conventional class II-restricted epitope (MHCII-MOG). The experiment includes sequences of factor VIII of either human (SEQ ID NO: 5) or mouse (SEQ ID NO: 6) origin corresponding to aminoacids 188-204 of the factor VIII sequence. […]

The mark [3] stands for this setting: mice given JAWS2 loaded with the labelled substance, tetramers loaded with Alpha-gal-cer.
Setting [4] is: mice given JAWS2 loaded with the labelled substance, tetramers loaded with Peptide SEQ ID NO: 3.
Where [5] appears, read: mice given JAWS2 loaded with the labelled substance, unloaded tetramers.
[6] abbreviates: mice given unloaded JAWS2 (natural repertoire), tetramers loaded with the labelled substance.

For the molecule “QTLHKFILLFAVFDEGKSWH (listed as Homo sapiens) [SEQ ID NO: 1, human factor VIII 190-209]”, the “% of CD4+ T cells detected by CD1d tetramers loaded with peptide” value with CD1d tetramers was ~1%. Also, the “proportion of NKT cells specific for peptide when peptide is presented by JAWS2 cells” value in the assay with NKT cells [1] (5 days after IP injection of 2×10^6 peptide-loaded JAWS2 cells) was 16%. In the assay on NKT cells [1] (control mice given JAWS2 cells not incubated with peptide), the “proportion of NKT cells specific for peptide, natural repertoire” value amounted to 8%.
Turning to `CCCCCCCCCCCCCCCCCCCCCCCCCC(=O)N[C@@H](CO[C@H]1O[C@H](CO)[C@H](O)[C@H](O)[C@H]1O)[C@H](O)[C@H](O)CCCCCCCCCCCCCC` [Alpha-gal-cer, alpha-gal-ceramide, reference compound], the “presence of cell clusters (clumps of cells)” value in the assay with human iNKT cells was “to the same extent”. Also, the “Number of DX5/CD160 cells, CD4+” value in the assay on NKT cells [2] (setting [3]) is on record as 2.3 ×10^3; in the assay on NKT cells [2] (setting [4]), 46 ×10^3; in the assay on NKT cells [2] (setting [5]), 0.1 ×10^3; in the assay with NKT cells [2] (setting [6]), 1.2 ×10^3. In addition, the “Number of DX5/CD160 cells, CD8+” value in the assay with NKT cells [2] (setting [3]) was 1.8 ×10^3; in the assay on NKT cells [2] (setting [4]), 1.9 ×10^3; in the assay with NKT cells [2] (setting [5]), 0 ×10^3; in the assay with NKT cells [2] (setting [6]) it was 1.3 ×10^3.
As to “AVFDEGKSWHS (homo sapiens) [SEQ ID NO: 4, human factor VIII 200-210]”, the “CD1d binding motif / NKT cells detected by peptide-loaded tetramers (in words)” value with CD1d tetramers is “limited though significant”.
As to “QTLHKFILLFA (homo sapiens) [SEQ ID NO: 3, human factor VIII 190-200]”, the “CD1d binding motif / NKT cells detected by peptide-loaded tetramers (in words)” value in the assay with CD1d tetramers is “major CD1d binding motif”. The “expression of CD1d at the surface of U937 cells (in words)” value in the assay with U937 cells is “did not increase”. Also, the “Number of DX5/CD160 cells, CD4+” value in the assay on NKT cells [2] (setting [3]) is listed as 2.2 ×10^3; in the assay with NKT cells [2] (setting [4]) it was 47 ×10^3; in the assay on NKT cells [2] (setting [5]), 0.2 ×10^3; in the assay with NKT cells [2] (setting [6]), 39 ×10^3. Besides, the “Number of DX5/CD160 cells, CD8+” value is 0.8 ×10^3 in the assay with NKT cells [2] (setting [3]), 4.1 ×10^3 in the assay on NKT cells [2] (setting [4]), 0.1 ×10^3 in the assay on NKT cells [2] (setting [5]) and 3.5 ×10^3 with NKT cells [2] (setting [6]).
Consider “KTQTLHKFILLFAVFDE (listed as Homo sapiens) [SEQ ID NO: 5, human factor VIII 188-204]”, for which, in the assay on human iNKT cells, the “presence of cell clusters (clumps of cells)” value is recorded as “clumps of cells form”.
